# Measurements published in patent US20240293337A1, “USE OF DOXERCALCIFEROL TO TREAT AND/OR PREVENT UTERINE FIBROIDS OR POLYCYSTIC OVARY SYNDROME” (priority 2023, published 2024).
# Columns and labels:
# SW872 cells [1] = assay: SW872 immortalized adipocyte model, cell morphology and cell number after 24 h treatment; assay type: cell-based, human; details: 100 nM
# Method: Human liposarcoma SW872 are used as an in vitro cell culture model of adipocytes to assess adipocyte proliferation. SW872 cells are purchased from (ATCC). These cells are isolated from a surgical specimen of a […] removed from a donor. The cells are cultured per the recommended guidelines. The cells are subcultured at a ratio of 1:4, resulting in a cell density of approximately 1×10^6 in T75 flasks. SW872 cells are subcultured in T75 flasks for 24 hours. Cells are then treated for 24 hours with serum free basal media as a control or doxercalciferol at 1 nM, 10 nM, or 100 nM diluted in basal media (serum-free). After the incubation period, cells are imaged and analyzed for morphology and cell count. Cells are then collected for analysis of adipogenesis-related gene expression and cell culture media are collected for analysis of obesity related cytokines.
# [2] = test system: patient derived xenograft (PDX) mouse model of uterine fibroids (UF); assay: Differentially expressed gene (DEG) analysis by RNA sequencing in PDX UFs; assay type: in vivo, NOD/SCID mice; details: UFs treated with doxercalciferol compared to control
# Method: (§1) After xenograft mice undergo intraperitoneal injection of doxercalciferol (300 ng/kg, 3 times per week) or saline for 6 weeks. Body weight is monitored weekly during doxercalciferol treatment. Six weeks after doxercalciferol treatment insulin resistance is assessed using GTT and then mice are anesthetized and blood is collected to measure liver enzyme and AMH levels, ovary tissue is removed for histological analysis, total RNA is extracted for sequencing, and tumor size is measured with a digital caliper.
# Total RNA is extracted from PDX mice after doxercalciferol treatment. EdgeR is used to identify DEGs with p-values of (p)<0.01). GO and KEGG enrichment analysis are performed to determine the implication of the DEGs at the biologically functional level.
# [3] = test system: letrozole induced polycystic ovary syndrome (PCOS) mouse models; assay: Breeding experiments in PCOS mice; assay type: in vivo, C57BL/6 mice
# Method: (§2) Five weeks after placebo or LTZ pellet implantation, mice undergo intraperitoneal injection of doxercalciferol (300 ng/kg) or saline 3 times per week for 6 weeks. Six weeks after doxercalciferol treatment, the mice are anesthetized and ovary, uterus, gonadal white fat, kidney, and liver tissue are collected. Each of these tissues are fixed in 4% paraformaldehyde for further histological analysis.
# After doxercalciferol treatment, 6 mice per group from the PCOS experiments are randomly selected for the breeding experiment. One male C57BL/6 breeder mouse is used for every two female mice. The male and female mice are caged together for 10 days. Mating is determined by the presence of sperm plug in the vagina. The pregnancy rate, required time for pregnancy, average number of pups, total live and dead pups, and mouse pup weight and growth rate at birth and days 5 and 10 postpartum are measured.
# ovary = assay: Ovarian follicle counts in PDX UF mice (H&E histology); assay type: in vivo, NOD/SCID mice; details: vs untreated control
# Method: as §1
# Ovary tissue is collected and fixed in 4% paraformaldehyde. Tissue sections are stained with hematoxylin-eosin (H&E). Histological analyses are performed.
# [4] = Serum chemistry in PCOS mice; assay type: in vivo, C57BL/6 mice; details: PCOS mice treated with doxercalciferol, n 7
# Method: as §2
# Blood is collected from all groups by cardiac exsanguination under isoflurane anesthesia: serum is separated and stored at −80° C. Serum chemistry analysis including BUN, ALT, ALP, AST, TBIL, calcium, TP, ALB, and NA+ is performed in University of Chicago Animal Resource Center (UC ARC) with VETSCAN® VS2 Chemistry Analyzer (Zoetis).
# SW872 cells [5] = assay: Adipogenesis gene expression in SW872 cells (qRT-PCR array); assay type: cell-based, human; details: 10 nM, 24 hours
# Method: SW872 cells are subcultured in T75 flasks for 24 hours. Cells are then treated for 24 hours with serum free basal media as a control or doxercalciferol at 1 nM, 10 nM, or 100 nM diluted in basal media (serum-free). After the incubation period, cells are imaged and analyzed for morphology and cell count. Cells are then collected for analysis of adipogenesis-related gene expression and cell culture media are collected for analysis of obesity related cytokines. RNA is extracted from SW872 cells treated with doxercalciferol. RNA extraction is done using TRIzol (Invitrogen, USA) according to the manufacturer's instructions. The concentration and purity of the extracted RNA is checked using a NanoDrop spectrometer (Thermo Scientific, MA, USA). Quantitative real-time PCR (qPCR) of adipogenesis related genes in SW872 cells is performed using a RT^2 Profiler™ PCR Array Human Apidogenesis according to the manufacturer's instructions (Qiagen, Sciences Inc., MD, USA).
# [6] = Glucose tolerance test in PDX UF mice; assay type: in vivo, NOD/SCID mice; details: 6 weeks after treatment, vs control
# Method: as §1
# Glucose tolerance testing is performed on PDX UF mice 6 weeks after doxercalciferol treatment. Mice are tested either without fasting or after fasting for 16 h (5 p.m. to 9 a.m.), with free access to drinking water, after which they receive an intra-peritoneal (i.p.) injection of D-glucose (2.0 g/kg body weight). Blood glucose level is measured at 0, 15, 30, 60, 90, and 120 min following glucose injection using a Bayer glucose monitor (Roche Diagnostics Corp, IN, USA).
# [7] = PCOS mice, 300 ng/kg i.p. 3 times per week for 6 weeks
smiles,measurement,setting,value
C=C1/C(=C\C=C2/CCC[C@]3(C)[C@@H]([C@H](C)/C=C/[C@H](C)C(C)C)CC[C@@H]23)C[C@@H](O)C[C@@H]1O [doxercalciferol],cell morphology,SW872 cells [1],most cells being dead
same,cell number,SW872 cells [1]; vs control,significant reduction in cells
same,ADRA1B fold change (FC),[2],−1.81
same,ARGI fold change (FC),[2],−1.42
same,DUSP1 fold change [FC],[2],1.05
same,IL24 fold change (FC),[2],1.55
same,number of DEGs,[2]; RNA sequencing,410
same,number of down-regulated DEGs,[2]; RNA sequencing,252
same,number of up-regulated DEGs,[2]; RNA sequencing,158
same,"average number of live pups, vs control mice",[3]; [7],no significant difference
same,"average number of live pups, vs untreated PCOS",[3]; [7],increased the average number of live pups
same,required time for pregnancy after introduction to a potential mate,[3]; [7],about 2 weeks
same,pregnancy rate,"[3]; PCOS mice, 300 ng/kg i.p. 3 times per week for 6 weeks (PCOS 20%, control 83.3%)",50%
same,"total number of live pups, vs untreated PCOS","[3]; PCOS mice, 300 ng/kg i.p. 3 times per week for 6 weeks, not to the levels of control mice",increases the total number of live pups
same,"average weight of pups, vs control mice","[3]; pups of treated PCOS mice, 5 days postpartum",significantly lower
same,"average weight of pups, vs control and PCOS","[3]; pups of treated PCOS mice, 10 days postpartum",no significant difference
same,"average weight of pups, vs control mice","[3]; pups of treated PCOS mice, at birth",significantly lower
same,"growth of pups, vs control and PCOS","[3]; pups of treated PCOS mice, at birth, 5 days and 10 days postpartum",no significant difference
same,"number of follicles at the primordial, primary, secondary, or preantral phases",ovary,does not significantly affect
same,total number of follicles in the ovary,ovary,does not significantly affect
same,"ALB, Mean",[4],3.9 g/dL
same,"ALP, Mean",[4],76 U/L
same,"ALT, Mean",[4],66 U/L
same,"AST, Mean",[4],144 U/L
same,"BUN, Mean",[4],22 mg/dL
same,"CA, Mean",[4],12.9 mg/dL
same,"NA+, Mean",[4],149 mmol/L
same,"TBIL, Mean",[4],0.4 mg/dL
same,"TP, Mean",[4],4.7 g/dL
same,CEBP relative gene expression,SW872 cells [5],significantly upregulated
same,CEBPD relative gene expression,SW872 cells [5],significantly upregulated
same,PRDM16 relative gene expression,SW872 cells [5],significantly downregulated
same,RXRA relative gene expression,SW872 cells [5],significantly upregulated
same,SREBF1 relative gene expression,SW872 cells [5],significantly downregulated
same,WNT1 relative gene expression,SW872 cells [5],significantly downregulated
same,WNT10B relative gene expression,SW872 cells [5],significantly downregulated
same,expression of most adipogenesis genes,SW872 cells [5]; not significant for most genes,downregulated
same,fasting glucose levels,[6]; fasting 16 h,tends to lower
same,glucose levels,[6]; without fasting,tends to lower
